Where a SMILES comes first, the peptide text is derived from it. The star is where a group is joined. Cbz = O=C(OCc1ccccc1)*; CH2F = FC*
Assays:
[1] = test system: VM DA (TH+) neurons; test: OT-1 T cell cytotoxicity (killing) assay on VM DA neurons; assay type: cell-based, mouse; conditions: for neuronal death: SIINFEKL, CTLs and medium conditioned by microglia exposed to the substance; for effect on CTL mediated neuronal death: neurons with IFN-γ, SIINFEKL and OT-1 cells
Procedure: OT-1 CD8^+ cell proliferation was assessed by BrdU incorporation. For OT-1 T cell cytotoxicity assays, DC and VM (from C57BL/6 and 56.129P2-B2mtm1Unc/J mice) cell cultures were incubated with neuronal medium or neuronal medium containing 100 ng/ml of IFN-γ (R&D Systems). Neurons were loaded with or without […] (SEQ ID NO: 9) peptide (1 μM), and, subsequently in vitro activated OT-1 cells were added at a density of 100,000 cells/well and co-incubated for 24 h.
We used the same conditions for VM cell cultures with microglial medium previously stimulated with LPS, NM or α-syn instead of IFN-γ. Neurons were pre-incubated with IFN-γ and […] (SEQ ID NO: 9) peptide as above, and then with: 1) a pan-caspase general inhibitor (Z-VAD-FMK, 20 μM, 24h, IMGENEX); 2) a specific granzyme/perforin inhibitor (concanamycin A, 100 nM, 24h, Sigma Aldrich); 3) a specific Fas/FasL antagonist (Kp7-6, 1 mM, 24h, EMD Biosciences) and 4) concanamycin A and Kp7-6 together. OT-1 cells were then added to the culture (100,000 cells/well) and maintained for 24 h.
Following immunocytochemical staining of VM neurons, we assessed the proportion of surviving DA (TH^+) and non-DA cells (MAP-2^+, TH^−). Total numbers of TH^+ and MAP-2^+ neurons were counted in 24 fields surrounding the border of the well at 20× magnification. The number of surviving TH+ neurons with an intact soma and two or more neurites equal to or greater than the diameter of the cell soma was counted and normalized to the number in untreated cultures.

[2] = test system: primary VM neurons; test: MHC-I expression of VM neurons after microglial conditioned medium; assay type: cell-based, mouse; conditions: for cell surface MHC-I presentation by VM neurons: conditioned medium from microglia incubated 72 hours with the substance; for induction of neuronal MHC-I: cultures directly exposed, absence of microglial cells
Procedure: (§1) IFN-γ (R&D Systems) was used at a range of non-toxic concentrations for neurons or OT-1 cells (10 μg/ml-100 ng/ml, 72h). 12-well cell culture plates were pre-treated with LPS (500 ng/ml, Sigma-Aldrich), NM (5 μg/ml), α-syn, Nit-α-syn or Mut-α-syn (200 μg/ml, kindly provided by Peter Lansbury, Harvard University) for 72 h before plating 45,000-50,000 microglial cells/well for an additional 24h. A neutralizing IFN-γ antibody (1:500, PBL InterferonSource) was used to block IFN-γ released from microglia. VM neurons were incubated for 72 h with microglial medium pre-stimulated by LPS, NM, α-syn, Nit-α-syn or Mut-α-syn. As a control experiment, we directly incubated VM neurons with the same compounds in the absence of microglia. In another set of experiments, VM, cortical and striatal primary neurons were incubated for 72 h with microglial medium pre-stimulated by LPS, NM, α-syn. NM was induced in SN cultured neurons by using L-DOPA (Sulzer et al., 2000) (Sigma Aldrich). For foreign protein processing and subsequent antigen presentation, VM cultures were maintained for 7 days in either 1) BSA/serum-free neuronal medium, 2) BSA/serum-free supplemented with OVA (2.5 mg/ml), adding IFN-γ (100 ng/ml) or saline for an additional 72h.
Images were captured using a Leica SP5 microscope system. There was no fluorescence bleed-through of secondary antibodies under the conditions used. MHC-I label observed in the neuronal cultures obtained from wild type mice was absent in neurons from β2m KO mice (FIG. 3A).
In order to assess the proportion of TH^+ and MAP-2^+ neurons that expressed MHC-I^+, first TH^+ and MAP-2^+ neurons were counted in 24 fields surrounding the border of the well at 20× magnification. The number of TH^+ or MAP-2^+ neurons with intact soma and two or more neurites equal to or greater than the diameter of the cell soma was counted. Then, the fluorescent filter was inserted for each field to determine how many of these neurons also expressed MHC-I.

[3] = test system: primary microglial cultures; test: ELISA of IFN-γ released by microglia; assay type: cell-based, mouse; conditions: primary microglial culture
Procedure: Briefly, for microglial cultures cells dissociated from 5 cortexes of 0-3 days old C57/B16 mice were seeded onto 75 cm^2 cell culture flasks in microglial culture medium (MEM supplemented with calf serum, glucose 45%, penicillin/streptomycin, insulin (25 mg/ml) and 200 mM glutamine) in a 5% CO^2 incubator at 37° C. (Sulzer et al., 2008). Two weeks later, microglia were detached from flasks by mild shaking and plated on 12 well-plates at a density of 45,000-50,000 microglial cells/well. For neuronal cultures, the area of interest was dissected and neurons were dissociated and plated at a density of 80,000/cm′ onto a layer of rat cortical glial cells grown on round glass coverslips and maintained in culture medium without added GDNF (glial cell line-derived neurotrophic factor) in a 5% CO^2 incubator at 37° C. for 5-9 days)(Sulzer et al., 2008). IFN-γ (R&D Systems) was used at a range of non-toxic concentrations for neurons or OT-1 cells (10 μg/ml-100 ng/ml, 72h). […] The concentration of IFN-γ released by microglia (plated as above) was measured by an ELISA kit (eBioscience) that detected the amount of this proinflammatory cytokine in a range of […].

[4] = test system: peripheral blood mononuclear cells (PBMC), T cells; test: ELISpot assay, IL-5 release (SFC) after stimulation with a-synuclein epitope pools; assay type: cell-based, human
Method in brief: (§2)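 Cytokine-secreting T cells were enumerated as SFC following 22 h peptide-pool stimulation of gradient-purified PBMC at 37 C. A threshold of 20 SFC per million cells defined confirmed release; group differences were assessed by Mann-Whitney U test.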

[5] = test system: peripheral blood mononuclear cells (PBMC), T cells; test: ELISpot assay, IFNg and IL-5 reactivity combined, T cell response to α-syn epitopes; assay type: cell-based, human; conditions: flag 1/0 per peptide
Procedure: Blood from age matched controls and PD patients were obtained and mononuclear cells were isolated by gradient centrifugation.
Release of the cytokines gamma-interferon, which measures activation of CD4+ and/or CD8+ T cells, and the interleukin, IL-5, which measures activation of CD4+ T cells was measured by ELISpot assay. […] After 22 hours of stimulation at 37 C, the cells were removed and release of cytokines was measured by colorimetric detection of spot-forming cells (SFC). Confirmed release of cytokine is determined by the presence of a minimum of 20 SFC per million cells.
The binding algorithms in SubAim 1 predict how well the peptides would bind to MHC if present, but not if they are present in patients. To determine this, the presence of T cell response against the candidate antigens by patient blood-derived peripheral blood mononuclear cells (PBMC) is assessed by ELISPOT assays upon stimulation with the peptides. This assay detects and quantifies cytokine release (in this case, IFNγ and IL-5) from specific activated T cells.
Data were obtained from blood samples (25 ml) from 44 PD patients and 24 age-matched controls. The experiments were conducted blindly. PBMCs from these samples were isolated and exposed to pools comprising the 122 candidate class I and class II antigens and phosphorylated S129 epitopes generated in Subaim 1. For the PBMCs responsive to the pooled peptides, the response was then deconvoluted to identify individual epitopes.
PMBC fractions are recovered by standard methods with Ficoll gradient and T cells expansion (Oseroff et al., 2010). The methods for the analysis of T cell reactions and measurement of cytokines production using the enzyme-linked immunosorbent spot (ELISPOT) assay are published in analogous experiments to discover antigens in multiple sclerosis (Lolli et al., 2013) and in hay fever allergens (Oseroff et al., 2010). T cell responses are determined by measuring IFNγ and IL-5 release by ELISPOT. Statistical analysis of differences between populations is expected to be non-parametric and analyzed with the U-Mann-Whitney test. If there were a normal distribution of response, which is a priori unlikely as some patients have no T cell response, with an SD=1, 8 patients per group would be required to provide a p>90% that the study detect a >2 fold difference at a two-sided 0.05 significance level.

[6] = test system: peripheral blood mononuclear cells (PBMC), T cells; test: ELISpot assay, gamma-interferon release (SFC) after stimulation with a-synuclein epitope pools; assay type: cell-based, human
Method in brief: as §2

[7] = test system: SN murine neuronal cultures; test: NM and MHC-I induction by L-DOPA in SN neuronal cultures; assay type: cell-based, mouse
Excerpt: To enhance cytosolic DA, the DA precursor, L-DOPA, was used, which is accumulated by amino acid transport and converted into DA in the cytosol. Exposure to high levels of L-DOPA can produce NM in both catecholaminergic and nominally non-catecholaminergic cells (Sulzer et al., 2000). […] SN murine neuronal cultures were exposed to L-DOPA under conditions that substantially increase cytosolic DA as measured by intracellular patch electrochemistry (Mosharov et al., 2009) and promote NM production as observed by brightfield microscopy (Sulzer et al., 2000).
as §1, with “For foreign protein processing and subsequent antigen presentation, VM cultures were maintained for 7 days in either 1) BSA/serum-free neuronal medium, 2) BSA/serum-free supplemented with OVA (2.5 mg/ml), adding IFN-γ (100 ng/ml) or saline for an additional 72h.” left out
Images were captured using a Leica SP5 microscope system. There was no fluorescence bleed-through of secondary antibodies under the conditions used. […]
In order to assess the proportion of TH^+ and MAP-2^+ neurons that expressed MHC-I^+, first TH^+ and MAP-2^+ neurons were counted in 24 fields surrounding the border of the well at 20× magnification. The number of TH^+ or MAP-2^+ neurons with intact soma and two or more neurites equal to or greater than the diameter of the cell soma was counted. […]

[8] = Patients Summary, PD patients, of donors tested (peptide)
[9] = Patients Summary, PD patients, single peptide
[10] = number of donors positive to the single peptide, second 'Pool Stimulated' section (from r296), 12 donors tested
[11] = peptide + / donors tested (peptide), second 'Pool Stimulated' section (from r296), 12 donors tested
[12] = single peptide, second 'Pool Stimulated' section (from r296), 12 donors tested

Molecule: α-syn: alpha synuclein protein, wild type
- neuronal death [1]: caused extensive neuronal death
- cell surface MHC-I presentation by VM neurons [2]: elicited cell surface MHC-I presentation
- induction of neuronal MHC-I [2]: no induction

Molecule: lipopolysaccharide [LPS, reference compound]
- neuronal death [1]: caused extensive neuronal death
- IFN-γ secretion, in words [3]: induced IFN-γ secretion
- cell surface MHC-I presentation by VM neurons [2]: elicited cell surface MHC-I presentation
- induction of neuronal MHC-I [2]: no induction

Molecule: 3521.0046 (FMKGLSKAKE; listed as Homo sapiens)
- IL-g Peptide + (donors positive to the peptide) [4, 8]: 0
- IL-g Response Frequency [4, 9]: 0%
- IL-g Total SFC [4, 9]: 0 SFC
- IL-g Peptide + [4, 10]: 0
- IL-g Response Frequency [4, 11]: 0%
- IL-g Total SFC [4, 12]: 0 SFC
- Peptides + in Patients & Normals [5]: 0
- IFNg Peptide + (donors positive to the peptide) [6, 8]: 0
- IFNg Response Frequency [6, 9]: 0%
- IFNg Total SFC [6, 9]: 0 SFC
- IFNg Peptide + [6, 10]: 0
- IFNg Response Frequency [6, 11]: 0%
- IFNg Total SFC [6, 12]: 0 SFC

Molecule: C/C=C/[C@H]1O[C@@](O)([C@@H](C)[C@H](O)[C@H](C)[C@H]2OC(=O)/C(OC)=C/C(C)=C/[C@@H](C)[C@@H](O)[C@@H](CC)[C@@H](O)[C@H](C)C/C(C)=C/C=C/[C@@H]2OC)C[C@@H](O[C@H]2C[C@@H](O)[C@H](OC(N)=O)[C@@H](C)O2)[C@@H]1C [concanamycin A]
- effect on CTL mediated neuronal death [1]: protect against CTL mediated neuronal death

Molecule: N[C@@H](Cc1ccc(O)c(O)c1)C(=O)O [L-DOPA, L-dihydroxyphenylalanine]
- neurons in which NM was induced [7]: 40%
- TH+ neurons with MHC-I display ([7]; TH+ neurons): ~10%
- TH− neurons with MHC-I display ([7]; TH− neurons): ~7%

Molecule: COC(=O)C[C@H](NC(=O)[C@H](C)NC(=O)[C@@H](NC(=O)OCc1ccccc1)C(C)C)C(=O)CF [Z-VAD-FMK] (Cbz-Val-Ala-Asp(OMe)-CH2F)
- effect on CTL mediated neuronal death [1]: protect against CTL mediated neuronal death

Reference: patent US20170184612A1, “USE OF LEUKOCYTES AND NOVEL BIOMARKERS IN THE DIAGNOSIS, CONFIRMATION, AND TREATMENT OF A NEUROLOGICAL DISORDER” (The Trustees of Columbia University in the City of New York, priority 2014, published 2017)
